Test results published in patent US20210228463A1, “COMPOSITION FOR FAT FORMATION INHIBITION AND BODY FAT REDUCTION, CONTAINING HYDRANGENOL AS ACTIVE INGREDIENT” (COSMAX BIO CO., LTD., priority 2019, published 2021).

System: AMPK
Assay: Expression of p-AMPK protein in adipose and liver tissues by HG
Format: in vivo, mice
Conditions: HG-treated group, Western blotting, FIG. 18
Procedure: To analyze in vivo anti-obesity efficacy of HG, animal models of obesity were prepared. 8-week-old male C57BL/6N mice (SPF grade, 20±2 g, Orient Bio) were set into 7 groups as follows, and 10 mice per each group were tested: as normal control groups, normal mice (con) with no high fat diet and no administration, and obese mice (HFD) with induction of obesity by 30% high fat diet and no administration, and as a positive control group, obese mice with oral administration of orlistat which is an anti-obesity agent. As experimental groups, obese mice with oral administration of HG of 20 mg/kg, 40 mg/kg, or 80 mg/kg, and normal mice with oral administration of HG of 80 mg/kg were used. Mice were administered with HG at the same time with induction of obesity, and HG was administered for 5 days per week for 12 weeks. A dark: light cycle was maintained at intervals of 12 hours: 12 hours, and mice were allowed to free access to water. […]
Specifically, adipose and liver tissues were mixed with a protein extraction solution, homogenized using a tissue homogenizer, and then centrifuged at 4° C., 15,000 rpm for 30 minutes to obtain a supernatant, and then a standard curve was created using the Bradford method to quantify protein. […]

For O=C1OC(c2ccc(O)cc2)Cc2cccc(O)c21 (stereo not shown) [HG, 8-hydroxy-3-(4-hydroxyphenyl)-3,4-dihydroisochromen-1-one], the “amount of phosphorylated AMPK protein” value was “increased”.
